Test results published in US9642835B2, “Modulators of GTPase and use in relevant treatment” (STC.UNM, priority 2010, dated 2017).

Legend:
Cdc42 ACT (Cdc42Q61L) = Cdc42 ACT (Cdc42Q61L) (Homo sapiens, UniProt P60953, Q61L); test: Bead-based flow cytometry dose response, BODIPY-FL-GTP binding; details: in the presence of Mg ions; read-out: EC50 for Cdc42(Q61L)
Procedure: (§1) Bead sets for multiplex assays were custom synthesized by Duke Scientific Corp (Fremont, Calif.), but may now be ordered from Thermo/Fisher. […] Negative controls, contained the bead mixture with fluorescent GTP, 0.5 mM unlabeled GTP as a competitor, and 1% DMSO. […] The resulting time-dependent data (one file per plate) were analyzed using IDLQuery software to determine the compound activity in each well. Gating based on forward scatter (FS) and side scatter (SS) parameters was used to identify singlet bead populations. Gating based on FL8 emission distinguishes the beads coated with different proteins, and the median fluorescence per bead population was calculated. […] Baselines were set to 100% based on measurements from the 1% DMSO containing positive controls as further described in PubChem. {PubChem #72}
(§2) Briefly, compounds were serially diluted 1:3 a total of eight times from a starting concentration of 10 mM giving a 9-point dilution series in DMSO. The final concentrations of inhibitors in the assay ranged from 10 nM to 100 μM. Dose-response analyses were examined in the presence of NP-HPS buffer containing: a) 1 mM EDTA; or b) 1 mM MgCl2. […] For assays with EDTA we used one multiplex (Rab7 wt, Rab2 wt, H-Ras wt, H-RasG12V, Cdc42 wt, and Cdc42Q61L) and 3 single-plexes (for Rac1 wt, Rac1 Q61L and GST-GFP).
(§3) GTPase activators were identified on the basis of an increase in fluorescent GTP-binding.
(§4) In experiments including magnesium, six GST-GTPases were assayed simultaneously in a single multiplex (Rac1 wt, Rac1Q61L, RhoA wt, RhoAL63, Cdc42 wt and Cdc42Q61L) and 1 nM BODIPY-FL-GTP binding was measured in the presence or absence of the serial drug dilution series. Each dose response series was run in duplicate.

Cdc42 WT = molecular target: T1, Cdc42 WT (Homo sapiens, UniProt P60953); test: as above; details: in the presence of Mg ions; read-out: EC50 for Cdc42 wt
T1 construct: purchased Cytoskeleton
T1 sequence (P60953 whole entry): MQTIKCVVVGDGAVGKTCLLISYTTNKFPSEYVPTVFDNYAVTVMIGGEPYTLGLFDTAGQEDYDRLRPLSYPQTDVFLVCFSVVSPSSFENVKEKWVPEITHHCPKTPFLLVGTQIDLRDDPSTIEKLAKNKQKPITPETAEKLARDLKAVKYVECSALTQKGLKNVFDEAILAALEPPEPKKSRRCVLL
Procedure: as §1, §2, §3, §4

wild-type Cdc42 = molecular target: T2, wild-type Cdc42 (Homo sapiens, UniProt P60953); test: Equilibrium binding assay of BODIPY-FL-GTP; details: 1.5 nM substrate, 1 mM MgCl2; read-out: IC50, inhibition of fluorescent GTP binding to Cdc42 wt
T2 construct: purchased Cytoskeleton
T2 sequence (P60953 whole entry): as above
Procedure: Changes in GTP binding affinity (Kd) and Bmax in the presence of a given compound were measured in multiplex (Cdc42, Cdc42Q61L, Rab2, Rab7, H-Ras and H-RasG12V) and single-plex formats (Rac1, Rac1Q61L and GST-GFP). GTPases and the GST-GFP control were individually bound to glutathione beads overnight at 4° C., washed with HPSE buffer, then resuspended together or assayed individually in the same buffer containing DTT and BSA. Bound GTPases were analyzed by mixing 5 μl protein-bound beads with 2.5-100 nM BODIPY-GTP in a total volume of 10 μl and incubating with rotation at 4° C. for 90 min. DMSO controls and samples treated with 10 μM of each test compound were run in parallel. Bound fluorescent nucleotide was measured using a Cyan ADP flow cytometer. Data were converted to ASCII format using IDLeQuery, exported and analyzed using Prism (GraphPad Software, Inc., San Diego, Calif.) non-linear, one-site binding.
Wild-type GST-Cdc42 (4 μM) was bound to GSH-beads overnight at 4° C. Cdc42 on GSH-beads was depleted of nucleotide by incubating with 10 mM EDTA containing buffer for 20 min at 30° C., washing twice with NP-HPS buffer, then re-suspended in the same buffer containing 1 mM EDTA/or 1 mM MgCl2, 1 mM DTT and 0.1% BSA. […] Samples incubated at 4° C. for 45 min and binding of fluorescent nucleotide to enzyme measured using an Accuri flow cytometer. […]

Sequence of Cdc42 ACT (Cdc42Q61L) (P60953 whole entry Q61L): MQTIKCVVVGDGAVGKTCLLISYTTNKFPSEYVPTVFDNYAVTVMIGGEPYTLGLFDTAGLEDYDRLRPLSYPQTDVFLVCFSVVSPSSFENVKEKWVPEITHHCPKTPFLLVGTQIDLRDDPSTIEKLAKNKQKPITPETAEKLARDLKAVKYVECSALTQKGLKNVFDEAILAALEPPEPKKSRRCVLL

COc1ccc(C2CC(c3ccccc3)=NN2c2ccc(S(N)(=O)=O)cc2)cc1 (stereo not drawn) [MLS000693334, 4-[3-(4-methoxyphenyl)-5-phenyl-3,4-dihydropyrazol-2-yl]benzenesulfonamide]
EC50 (Cdc42 ACT (Cdc42Q61L)): ~4 µM
EC50 (Cdc42 WT): ~4 µM
IC50 (wild-type Cdc42): 0.2 µM
